From patent publication US20130287805A1, “C18ORF54 PEPTIDES AND VACCINES INCLUDING THE SAME” (priority 2010, published 2013)
Entries after “also recorded” stand apart in the source; their conditions may differ.

Experiments:
[1] = tested on: COS7 cells transfected with C18orf54 and HLA-A*0201; experiment: Specific CTL activity against target cells expressing C18orf54 and HLA-A*0201; type: cell-based, African green monkey; conditions: CTL clone
Description: The cDNA encoding an open reading frame of target genes or HLA-A*0201 was amplified by PCR. The PCR-amplified product was cloned into the expression vector. The plasmids were transfected into COS7, which is the target genes and HLA-A*0201-null cell line, using lipofectamine 2000 (Invitrogen) according to the manufacturer's recommended procedures. After 2 days from transfection, the transfected cells were harvested with versene (Invitrogen) and used as the target cells (5×10^4 cells/well) for CTL activity assay.
The established CTL lines and clones raised against each peptide were examined for the ability to recognize target cells that express C18orf54 and HLA-A*0201 molecule. […] COS7 cells transfected with either full length of C18orf54 or HLA-A*0201 were prepared as the controls.

peptide-pulsed T2 cells [2] = experiment: IFN-gamma ELISPOT assay of CTLs induced in vitro with peptide-pulsed DCs; type: cell-based, human; conditions: CTLs from HLA-A*0201 positive donor, day 21, peptide-pulsed T2 versus no peptide control
Description: Monocyte-derived dendritic cells (DCs) were used as antigen-presenting cells to induce cytotoxic T lymphocyte (CTL) responses against peptides presented on human leukocyte antigen (HLA). DCs were generated in vitro as described elsewhere (Nakahara S et al., Cancer Res 2003 Jul. 15, 63(14): 4112-8). Specifically, peripheral blood mononuclear cells isolated from a normal volunteer (HLA-A*0201 positive) by Ficoll-Plaque (Pharmacia) solution were separated by adherence to a plastic tissue culture dish (Becton Dickinson) so as to enrich them as the monocyte fraction. The monocyte-enriched population was cultured in the presence of 1000 U/ml of granulocyte-macrophage colony-stimulating factor (R&D System) and 1000 U/ml of interleukin (IL)-4 (R&D System) in AIM-V Medium (Invitrogen) containing 2% heat-inactivated autologous serum (AS). After 7 days of culture, the cytokine-induced DCs were pulsed with 20 micro-g/ml of each of the synthesized peptides in the presence of 3 micro-g/ml of beta 2-microglobulin for 3 hr at 37 degrees C. in AIM-V Medium. The generated cells appeared to express DC-associated molecules, such as CD80, CD83, CD86 and HLA class II, on their cell surfaces (data not shown). These peptide-pulsed DCs were then inactivated by X-irradiated (20 Gy) and mixed at a 1:20 ratio with autologous CD8+ T cells, obtained by positive selection with CD8 Positive Isolation Kit (Dynal). These cultures were set up in 48-well plates (Corning); each well contained 1.5×10^4 peptide-pulsed DCs, 3×10^5 CD8+ T cells and 10 ng/ml of IL-7 (R&D System) in 0.5 ml of AIM-V/2% AS medium. Three days later, these cultures were supplemented with IL-2 (CHIRON) to a final concentration of 20 IU/ml. On day 7 and 14, the T cells were further stimulated with the autologous peptide-pulsed DCs. The DCs were prepared each time by the same way described above. CTL was tested against peptide-pulsed T2 cells after the 3rd round of peptide stimulation on day 21 (Tanaka H et al., Br J Cancer Jan. 5, 2001, 84(1): 94-9; Umano Y et al., Br J Cancer Apr. 20, 2001, 84(8): 1052-7; Uchida N et al., Clin Cancer Res Dec. 15, 2004, 10(24): 8577-86; Suda T et al., Cancer Sci May 2006, 97(5): 411-9; Watanabe T et al., Cancer Sci August 2005, 96(8): 498-506).
(§1) Specifically, peptide-pulsed T2 (1×10^4/well) was prepared as stimulator cells. Cultured cells in 48 wells were used as responder cells. IFN-gamma ELISPOT assay and IFN-gamma ELISA assay were performed under manufacture procedure.

peptide-pulsed T2 cells [3] = experiment: IFN-gamma ELISA assay of expanded CTL lines; type: cell-based, human; conditions: target cells pulsed with peptide versus without peptide pulse
Method: CTLs were expanded in culture using the method similar to the one described by Riddell et al. (Walter E A et al., N Engl J Med Oct. 19, 1995, 333(16): 1038-44; Riddell S R et al., Nat Med February 1996, 2(2): 216-23). A total of 5×10^4 CTLs were suspended in 25 ml of AIM-V/5% AS medium with 2 kinds of human B-lymphoblastoid cell lines, inactivated by Mitomycin C, in the presence of 40 ng/ml of anti-CD3 monoclonal antibody (Pharmingen). One day after initiating the cultures, 120 IU/ml of IL-2 were added to the cultures. The cultures were fed with fresh AIM-V/5% AS medium containing 30 IU/ml of IL-2 on days 5, 8 and 11 (Tanaka H et al., Br J Cancer Jan. 5, 2001, 84(1): 94-9; Umano Y et al., Br J Cancer Apr. 20, 2001, 84(8): 1052-7; Uchida N et al., Clin Cancer Res Dec. 15, 2004, 10(24): 8577-86; Suda T et al., Cancer Sci May 2006, 97(5): 411-9; Watanabe T et al., Cancer Sci August 2005, 96(8): 498-506).
as §1

peptide-pulsed T2 cells [4] = experiment: IFN-gamma ELISA assay of CTL clones established by limiting dilution; type: cell-based, human; conditions: target cells pulsed with peptide versus without peptide pulse
Method: The dilutions were made to have 0.3, 1, and 3 CTLs/well in 96 round-bottomed micro titer plate (Nalge Nunc International). CTLs were cultured with 1×10^4 cells/well of 2 kinds of human B-lymphoblastoid cell lines, 30 ng/ml of anti-CD3 antibody, and 125 U/ml of IL-2 in a total of […] of AIM-V Medium containing 5% AS. 50 micro-l/well of IL-2 were added to the medium 10 days later so to reach a final concentration of 125 U/ml IL-2. CTL activity was tested on the 14th day, and CTL clones were expanded using the same method as described above (Uchida N et al., Clin Cancer Res Dec. 15, 2004, 10(24): 8577-86; Suda T et al., Cancer Sci May 2006, 97(5): 411-9; Watanabe T et al., Cancer Sci August 2005, 96(8): 498-506).
as §1

| Sequence | Peptide specific CTL activity: IFN-gamma production (ELISPOT) (peptide-pulsed T2 cells [2]) | IFN-gamma production of CTL lines (ELISA) (peptide-pulsed T2 cells [3]) | also measured |
| --- | --- | --- | --- |
| SLQKALHHL [SEQ ID NO: 5] | potent IFN-gamma production | potent IFN-gamma production | Specific CTL activity against COS7 cells expressing both C18orf54 and HLA-A*0201 ([1]; COS7 transfected with both full length C18orf54 and HLA-A*0201, listed as C18orf54-A02-9-507): potent CTL activity; also recorded: specific CTL activity; Specific CTL activity against control COS7 cells ([1]; COS7 transfected with either C18orf54 or HLA-A*0201 alone): no significant specific CTL activity; IFN-gamma production of CTL clones (ELISA) (peptide-pulsed T2 cells [4]; listed as C18orf54-A02-9-507): potent IFN-gamma production |
| QLKESMIPI [SEQ ID NO: 10] | potent IFN-gamma production |  |  |
| SMIPITRSL [SEQ ID NO: 1] |  |  | Peptide specific CTL activity: IFN-gamma production (ELISPOT) (peptide-pulsed T2 cells [2]; listed as C18orf54-A02-9-500): not observed |
| QMLFNLQAV [SEQ ID NO: 2] | potent IFN-gamma production | potent IFN-gamma production |  |
| SIPDFKYPV [SEQ ID NO: 4] | potent IFN-gamma production | potent IFN-gamma production | IFN-gamma production of CTL clones (ELISA) (peptide-pulsed T2 cells [4]; listed as C18orf54-A02-9-255): potent IFN-gamma production |
| VTFKSPVPV [SEQ ID NO: 9] | potent IFN-gamma production |  |  |
| SLSDDKELV [SEQ ID NO: 3] | potent IFN-gamma production |  |  |
| WLTSQKSDL [SEQ ID NO: 20] | potent IFN-gamma production |  |  |
| TSIPDFKYPV [SEQ ID NO: 32] | potent IFN-gamma production |  |  |
| KLYRSASQA [SEQ ID NO: 14] | potent IFN-gamma production |  |  |
